The record followed here is US6867185B2 (Bristol-Myers Squibb Company, priority 2001, dated 2005).

Experiment [1] deals with T1, HCV NS3/4A protease complex, BMS strain (genotype 1a) (Hepatitis C virus genotype 1a, UniProt P27958, C1454S/C1711G).
T1 construct: recombinant HCV NS3/4A protease complex (amino'acids 1027 to 1711); inferred from the pET21b vector and Ni-NTA purification; made in house; host or cells: Escherichia coli BL21 (DE3), pET21b
In words: Recombinant HCV NS3/4A protease complex FRET peptide assay (BMS strain). It counts as biochemical. As to conditions: IC50, HCV NS3/4A protease FRET assay in vitro; IC50 ranges. An excerpt: The purpose of this in vitro assay was to measure the inhibition of HCV NS3 protease complexes, derived from the BMS, H77C or J4L6S strains, as described below, by compounds of the present invention. This assay provides an indication of how effective compounds of the present invention would be in inhibiting HCV proteolytic activity.
Serum from an HCV-infected patient was obtained from Dr. T. Wright, San Francisco Hospital. An engineered full-length cDNA (compliment deoxyribonucleic acid) template of the HCV genome (BMS strain) was constructed from DNA fragments obtained by reverse transcription-PCR (RT-PCR) of serum RNA (ribonucleic acid) and using primers selected on the basis of homology between other genotype 1a strains. From the determination of the entire genome sequence, a genotype 1a was assigned to the HCV isolate according to the classification of Simmonds et al. (See P Simmonds, K A Rose, S Graham, S W Chan, F McOmish, B C Dow, E A Follett, P L Yap and H Marsden, J. Clin. Microbiol., 31 (6), 1493-1503 (1993)). […] The infectious clones, H77C (1a genotype) and J4L6S (1b genotype) were obtained from R. Purcell (N1H) and the sequences are published in Genbank (AAB67036, see Yanagi, M., Purcell, R. H., Emerson, S. U. and Bukh, J. Proc. Natl. Acad. Sci. U.S.A. 94 (16), 8738-8743 (1997); AF054247, see Yanagi, M., St Claire, M., Shapiro, M., Emerson, S. U., Purcell, R. H. and Bukh, J, Virology 244 (1), 161-172. (1998)).
The BMS, H77C and J4L6S strains were used for production of recombinant NS3/4A protease complexes. DNA encoding the recombinant HCV NS3/4A protease complex (amino'acids 1027 to 1711) for these strains were manipulated as described by P. Gallinari et al. (see Gallinari P, Paolini C, Brennan D, Nardi C, Steinkuhler C, De Francesco R. Biochemistry. 38 (17):5620-32, (1999)). Briefly, a three-lysine solubilizing tail was added at the 3′-end of the NS4A coding region. The cysteine in the P1 position of the NS4A-NS4B cleavage site (amino acid 1711) was changed to a glycine to avoid the proteolytic cleavage of the lysine tag. Furthermore, a cysteine to serine mutation was introduced by PCR at amino acid position 1454 to prevent the autolytic cleavage in the NS3 helicase domain. The variant DNA fragment was cloned in the pET21b bacterial expression vector (Novagen)and the NS3/4A complex was expressed in Escherichia. coli strain BL21 (DE3) (Invitrogen) following the protocol described by P. Gallinari et al. (see Gallinari P, Brennan D, Nardi C, Brunetti M, Tomei L, Steinkuhler C, De Francesco R., J. Virol. 72 (8):6758-69 (1998)) with modifications. Briefly, NS3/4A expression was induced with 0.5 mM Isopropyl β-D-1-thiogalactopyranoside (IPTG) for 22 hr at 20° C. A typical fermentation (10L) yielded approximately 80 g of wet cell paste. The cells were resuspended in lysis buffer (10 mL/g) consisting of 25 mM N-(2-Hydroxyethyl)Piperazine-N′-(2-Ethane Sulfonic acid) (HEPES), pH 7.5, 20% glycerol, 500 mM Sodium Chloride (NaCl), 0.5% Triton-X100, 1 ug/ml lysozyme, 5 mM Magnesium Chloride (MgCl2), 1 ug/ml Dnasel, 5 mM β-Mercaptoethanol (OME), Protease inhibitor-Ethylenediamine Tetraacetic acid (EDTA) free (Roche), homogenized and incubated for 20 mins at 4° C. The homogenate was sonicated and clarified by ultra-centrifugation at 235000 g for 1 hr at 4° C. Imidazole was added to the supernatant to a final concentration of 15 mM and the pH adjusted to 8.0. The crude protein extract was loaded on a Nickel-Nitrilotriacetic acid (Ni-NTA) column pre-equilibrated with buffer B (25 mM HEPES, pH 8.0, 20% glycerol, 500 mM NaCl, 0.5% Triton-X100, 15 mM imidazole, 5 mM βME). The sample was loaded at a flow rate of 1 mL/min. The column was washed with 15 column volumes of buffer C (same as buffer B except with 0.2% Triton-X100). The protein was eluted with 5 column volumes of buffer D (same as buffer C except with 200 mM Imidazole). […]

The test system of experiment [2] is HCV replicon in Huh7 cells. In words: HCV replicon cell-based assay (replicon FRET assay). Set-up: species or system HCV strain 1B. As to conditions: Hepatitis C virus, Huh-7, HCV replicon cell assay; EC50 ranges. The text has this:
An HCV replicon whole cell system was established as described by Lohmann V, Korner F, Koch J, Herian U, Theilmann L, Bartenschlager R., Science 285 (5424):110-3 (1999). This system enabled us to evaluate the effects of our HCV Protease compounds on HCV RNA replication. Briefly, using the HCV strain 1B sequence described in the Lohmann paper (Assession number:AJ238799), an HCV cDNA was generated encoding the 5′ internal ribosome entry site (IRES), the neomycin resistance gene, the EMCV (encephalomyocarditis viurs)-IRES and the HCV nonstructural proteins, NS3-NS5B, and 3′ non-translated region (NTR). In vitro transcripts of the cDNA were transfected into the human hepatoma cell line, Huh7. […] Resulting cell lines were characterized for positive and negative strand RNA production and protein production over time.
Huh7 cells, constitutively expressing the HCV replicon, were grown in Dulbecco's Modified Eagle Media (DMEM) containing 10% Fetal calf serum (FCS) and 1 mg/ml G418 (Gibco-BRL). Cells were seeded the night before (1.5×10^4 cells/well) in 96-well tissue-culture sterile plates. Compound and no compound controls were prepared in DMEM containing 4% FCS, 1:100 Penicillin/Streptomysin, 1:100 L-glutamine and 5% DMSO in the dilution plate (0.5% DMSO final concentration in the assay). Compound/DMSO mixes were added to the cells and incubated for 4 days at 37° C. After 4 days, plates were rinsed thoroughly with Phosphate-Buffered Saline (PBS) (3 times 150 μl). The cells were lysed with 25 μl of a lysis assay reagent containing the FRET peptide (RET S1, as described for the in vitro enzyme assay). The lysis assay reagent was made from 5× cell Luciferase cell culture lysis reagent(Promega #E153A) diluted to 1× with distilled water, NaCl added to 150 mM final, the FRET peptide diluted to 10 μM final from a 2 mM stock in 100% DMSO. The plate was then placed into the Cytofluor 4000 instrument which had been set to 340 nm excitation/490 emission, automatic mode for 21 cycles and the plate read in a kinetic mode. EC50 determinations were carried out as described for the IC50 determinations.

T1 sequence (P27958 1027-1711 C1454S/C1711G, one chain of several): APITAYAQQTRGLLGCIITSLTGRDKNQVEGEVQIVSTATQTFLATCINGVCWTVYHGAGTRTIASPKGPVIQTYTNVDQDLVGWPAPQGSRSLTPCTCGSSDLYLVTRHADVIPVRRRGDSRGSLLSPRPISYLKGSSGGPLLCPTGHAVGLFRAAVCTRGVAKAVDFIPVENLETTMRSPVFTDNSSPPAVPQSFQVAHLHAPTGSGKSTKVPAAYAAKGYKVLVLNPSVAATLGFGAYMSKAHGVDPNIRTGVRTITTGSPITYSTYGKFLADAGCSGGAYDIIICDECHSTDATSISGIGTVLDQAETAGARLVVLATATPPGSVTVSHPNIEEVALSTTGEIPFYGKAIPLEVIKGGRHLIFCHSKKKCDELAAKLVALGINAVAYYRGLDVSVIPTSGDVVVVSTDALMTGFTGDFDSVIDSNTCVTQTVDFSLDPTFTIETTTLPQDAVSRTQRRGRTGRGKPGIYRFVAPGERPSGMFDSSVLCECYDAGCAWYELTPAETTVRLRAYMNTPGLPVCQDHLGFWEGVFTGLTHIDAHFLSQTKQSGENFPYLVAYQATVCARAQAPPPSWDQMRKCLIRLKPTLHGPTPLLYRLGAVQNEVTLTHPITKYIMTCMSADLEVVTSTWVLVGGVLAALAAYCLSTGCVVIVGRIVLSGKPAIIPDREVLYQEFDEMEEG

Regarding `COc1ccc2c(O[C@@H]3C[C@H]4C(=O)N[C@]5(C(=O)NS(=O)(=O)C6CC6)C[C@H]5/C=C\CCCCC[C@H](NC(=O)OCCF)C(=O)N4C3)cc(-c3ccccc3)nc2c1` [Compound 21, (1S,4R,6S,14S,18R)-7-cis-[4-Cyclopropanesulfonylaminocarbonyl-18-(7-methoxy-2-phenylquinolin-4-yloxy)-2,15-dioxo-3,16-diazatricyclo-[14.3.0.0^4,6]nonadec-7-en-14-yl]carbamic acid 2-fluoroethyl ester], the IC50 in experiment [1] is less than 50 nM. The same compound had an EC50 in experiment [2] of less than 50 nM.
Regarding `COc1ccc2c(O[C@@H]3C[C@H]4C(=O)N[C@]5(C(=O)NS(=O)(=O)C6CC6)C[C@H]5CCCCCCC[C@H](NC(=O)OCC(C)(C)C)C(=O)N4C3)cc(-c3ccccc3)nc2c1` [Compound 22, (1S,4R,6R,14S,18R)-[4-Cyclopropanesulfonylaminocarbonyl-18-(7-methoxy-2-phenylquinolin-4-yloxy)-2,15-dioxo-3,16-diazatricyclo[14.3.0.0^4,6]-nonadec-14-yl]carbamic acid 2,2-dimethylpropyl ester], the IC50 in experiment [1] was less than 50 nM. This compound returned an EC50 in experiment [2] of less than 50 nM.
Take `COc1ccc2c(O[C@@H]3C[C@H]4C(=O)N[C@]5(C(=O)NS(=O)(=O)C6CC6)CC5CCCCCCC[C@H](NC(=O)OC5CCOCC5)C(=O)N4C3)cc(-c3ccccc3)nc2c1` (stereo partly drawn) [Compound 23, (1S,4R,6R,14S,18R)-[4-Cyclopropanesulfonyl-aminocarbonyl-18-(7-methoxy-2-phenylquinolin-4-yloxy)-2,15-dioxo-3,16-diazatricyclo[14.3.0.0^4,6]nonadec-14-yl]carbamic acid tetrahydro[4H]pyran-4-yl ester]: the IC50 in experiment [1] is less than 50 nM. Besides, the EC50 in experiment [2] is less than 50 nM.
In the case of `COc1ccc2c(O[C@@H]3C[C@H]4C(=O)N[C@]5(C(=O)NS(=O)(=O)C6CC6)CC5CCCCCC[C@H](NC(=O)CC5CC5)C(=O)N4C3)cc(-c3ccccc3)nc2c1` (stereo partly drawn) [Compound 24, (1S,4R,6R,14S,17R)-N-[4-Cyclopropanesulfonylaminocarbonyl-17-(7-methoxy-2-phenylquinolin-4-yloxy)-2,14-dioxo-3,15-diazatricyclo[13.3.0.0^4,6]-octadec-13-yl]-2-cyclopropylacetamide], in experiment [1], the IC50 is less than 50 nM. The EC50 in experiment [2] was less than 50 nM.
Regarding `COc1ccc2c(O[C@@H]3C[C@H]4C(=O)N[C@]5(C(=O)NS(=O)(=O)C6CC6)CC5CCCCCC[C@H](NC(=O)OC5CCCC5)C(=O)N4C3)cc(-c3ccccc3)nc2c1` (stereo partly drawn) [Compound 25, (1S,4R,6R,14S,17R)-[4-Cyclopropanesulfonylaminocarbonyl-17-(7-methoxy-2-phenylquinolin-4-yloxy)-2,14-dioxo-3,15-diazatricyclo[13.3.0.0^4,6]octa-dec-13-yl]carbamic acid cyclopentyl ester], the IC50 in experiment [1] is less than 50 nM. The EC50 in experiment [2] was less than 50 nM.
As to `COc1ccc2c(O[C@@H]3C[C@H]4C(=O)N[C@]5(C(=O)NS(=O)(=O)C6CC6)CC5CCCCCC[C@H](NC(=O)O[C@H]5CCOC5)C(=O)N4C3)cc(-c3ccccc3)nc2c1` (stereo partly drawn) [Compound 26, (1S,4R,6R,14S,17R,3′S)-[4-Cyclopropanesulfonyl-aminocarbonyl-17-(7-methoxy-2-phenylquinolin-4-yloxy)-2,14-dioxo-3,15-diazatricyclo[13.3.0.0^4,6]-octadec-13-yl]-carbamic acid tetrahydrofuran-3′-yl ester], the IC50 in experiment [1] is less than 50 nM. The same compound came in with an EC50 in experiment [2] of less than 50 nM.
For `COc1ccc2c(O[C@@H]3C[C@H]4C(=O)N[C@]5(C(=O)NS(=O)(=O)C6CC6)C[C@H]5/C=C\CCCCC[C@H](NC(=O)OC(C)(C)C)C(=O)N4C3)cc(-c3csc(C(C)C)n3)nc2c1` [Compound 27], the IC50 in experiment [1] was less than 50 nM. Also, the 50% effective concentration (EC50) in experiment [2] was less than 50 nM.

As usually defined, the IC50 is the point on the concentration scale where inhibition reaches its midpoint. A word on the EC50: it is the concentration that produces a half-maximal response.
